The text below walks through data of PubChem BioAssay (NCI).

Several values for one entry are separate records, joined by “and”; a condition that tells them apart may be missing. Equal values may be shown once.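 Method: 48-hour compound exposure of cells in 96-well plates, five concentrations, linear interpolation of endpoints. The concentration for 50% growth inhibition is given as GI50. TGI denotes the concentration required for complete inhibition of growth.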

What all share (assay): NCI tumour cell line growth inhibition, 48 h
Assay [1] deals with A549 NSCLC.
Assay [2] concerns HCT-15 colon.
Assay [3] has as its system MALME-3M melanoma.
The test system of assay [4] is NCI-H226 lung.
For assay [5], the system named is NCI/ADR-RES ovarian.
For assay [6], the system named is OVCAR-4 ovarian.
Assay [7] deals with RXF 393 renal.
For assay [8], the system named is T-47D breast.
Assay [9] relates to U251 CNS.
Assay [10] relates to MDA-MB-231 breast.

Take `O=C(Nc1ccccc1)OC1OC(COC(=O)c2ccccc2)C(OC(=O)c2ccccc2)C1OS(=O)(=O)c1ccc([N+](=O)[O-])cc1` (centres undefined): the TGI in assay [1], in assay [2], in assay [3], in [4], in [5] and in assay [6] was above 100 µM throughout. Besides, the TGI in assay [7], in assay [8] and in assay [9] was above 100 µM each time.

Take `COc1cc2ncnc(Nc3ccc(Oc4ccnc(C)c4)c(C)c3)c2cc1NC(=O)CC1CCSS1` (centres undefined): the GI50 was 1.04 µM in assay [2]; 0.895 µM in [10]; 1.68 µM in assay [4]; 2.14 µM in assay [5]; 1.54 µM in assay [6]; 1.5 µM in [7]. In addition, in [9], the GI50 is 1.15 µM. Moreover, the TGI was 2.31 µM in [2]; 1.98 µM in [10]; above 12.9 µM in assay [4]; above 50 µM in [5]; 24.3 µM in assay [6]; above 50 µM in assay [7]. Moreover, the TGI in [9] was determined as 2.81 µM.

In the case of `CCOC(=O)c1c(C)nc2c(c1N)/C(=C/c1ccccn1)C(=O)N2Cc1ccccc1`, the GI50 in [1] is 2.52 µM; in assay [2], 1.07 µM; in [3], 0.937 µM; in assay [6] it was 1.51 µM; in assay [7], 0.95 µM; in [8], 1.13 µM. For the same compound, the GI50 in assay [9] was 0.948 µM. For the same compound, the TGI in assay [1] is above 50 µM; in assay [2], 2.63 µM; in assay [3], 2.2 µM; in assay [6], above 50 µM; in assay [7] it was 1.79 µM; in [8] it was 3.3 µM. In [9], this compound registered a TGI of 1.72 µM.

For the compound `COc1ccc(S(=O)(=O)Nc2c(/C=C\c3cc(OC)c(OC)c(OC)c3)ccc(OC)c2O)cc1`, the GI50 in assay [1] is 0.0459 µM; in assay [2] it was 0.0366 µM; in assay [3], 15.1 µM; in [10], 0.0503 µM; in [4], 41.3 µM; in assay [5], 0.155 µM. Moreover, the values for the GI50 in assay [6], in assay [7] and in [9] were 0.0763 µM, 0.0318 µM and 0.0374 µM, respectively. Also, the TGI in assay [1] is above 100 µM; in assay [2], above 100 µM; in [3], above 100 µM; in assay [10], 2.35 µM; in assay [4], above 100 µM; in [5] it was 0.598 µM. Also, the results for the TGI in assay [6], in [7] and in assay [9] were above 100 µM, 21.7 µM and above 100 µM, respectively.

On to `Oc1ccc2ccccc2c1C=NCc1c(O)ccc2ccccc12`, for which the TGI in assay [1], in assay [2], in assay [3], in assay [10], in assay [5] and in [6] was above 100 µM in each case. Also, the figures for the TGI in [7], in assay [8] and in assay [9] were 9.34 µM, above 100 µM and above 100 µM, respectively.

Turning to `O=C(N=c1nc(NC(=O)c2ccccc2)ss1)c1ccccc1`, the TGI is 49.7 µM in [1]; above 100 µM in assay [2]; above 100 µM in assay [3]; above 100 µM in assay [4]; above 100 µM in [6]; above 100 µM in assay [7]. This compound showed a TGI in [9] of 37.1 µM.

Consider `COc1ccc(O)cc1C(O)c1ccccc1` (centres undefined), for which the TGI in assay [1], in assay [2], in [3], in assay [4], in [6] and in assay [7] was above 100 µM throughout. For the same compound, in [9], the TGI was above 100 µM.

On to `CCC(C)C1=C(O)[N+]2([O-])Oc3ccc(C4=C(O)C(=O)C(c5ccc(O)cc5)=C(O)C4=O)cc3OC2(C(C)CC)C(=O)N1O` (centres undefined), for which the GI50 is 9.35 µM in [1]; 5.82 µM in [2]; 14.7 µM in assay [3]; 15.5 µM in assay [10]; 3.81 µM in assay [4]; 7.86 µM in assay [5]. Further, the GI50 was above 100 µM in [6], 8.49 µM in [7] and 6.25 µM in assay [9]. The TGI in assay [1] was above 100 µM; in assay [2] it was above 100 µM; in assay [3], 48.2 µM; in assay [10] it was 63.8 µM; in assay [4], above 100 µM; in [5], above 100 µM. The TGI in assay [6], in assay [7] and in assay [9] was above 100 µM each time.

On to `O=C(CC1C(=O)Nc2ccccc2S1(=O)=O)Nc1ccc(Cl)cc1` (centres undefined), for which the TGI in assay [1] is above 100 µM; in assay [2], above 100 µM; in [3], 86.9 µM; in [4] it was above 100 µM; in assay [6], 77.2 µM; in [7], 38.5 µM. The TGI in [9] was 34 µM.

On to `COc1ccc(-c2cn(-c3ccc(OC)c(OC)c3)c(=O)[nH]2)cc1`, for which the GI50 in [1] was above 100 µM; in assay [2], above 100 µM; in assay [3] it was above 100 µM; in [10], above 100 µM; in assay [4] it was above 100 µM; in assay [5] it was 85.8 µM. Also, the GI50 is 75.7 µM in assay [6], 51.5 µM in assay [8] and above 100 µM in [9]. The TGI in assay [1], in assay [2], in assay [3], in assay [10], in [4] and in [5] was above 100 µM in each case. In addition, the TGI in assay [6], in [8] and in assay [9] was above 100 µM throughout.

Turning to `COc1cc2c3c(n(CCCNCCCNCCN)c(=O)c2cc1OC)-c1cc2c(cc1C3=O)OCO2`, the GI50 was above 100 µM in [1]; above 100 µM in [2]; 28.8 µM in [10]; 79.4 µM in assay [4]; 18.6 µM in assay [6]; above 100 µM in assay [7]. For the same compound, the values for the GI50 in assay [8] and in assay [9] were 46.8 µM and 18 µM, respectively. The TGI in [1] was above 100 µM; in [2] it was above 100 µM; in [10] it was above 100 µM; in assay [4], above 100 µM; in assay [6], 55.6 µM; in assay [7] it was above 100 µM. The figures for the TGI in [8] and in [9] were above 100 µM and 44.2 µM, respectively.

In the case of `COc1c(I)c(OC)c2c(c1I)O[C@@H]1OCC[C@H]21`, the TGI in assay [1] was above 100 µM; in assay [2], above 100 µM; in assay [3] it was 73.4 µM; in [4] it was above 100 µM; in [6] it was 84.6 µM; in assay [7] it was 72.4 µM. The compound further had a TGI in [9] above 100 µM.

For `N#C/C(=C1\OC(=N)C(c2ccccc2)C1=O)c1ccccc1` (centres undefined), the TGI in assay [1] is above 100 µM; in assay [2] it was 60.2 µM; in [3], 36.8 µM; in assay [4] it was above 100 µM; in assay [6] it was above 100 µM; in assay [7], 31.8 µM. Further, the TGI in assay [9] was above 100 µM.

Consider `CCOC(=O)c1[nH]c2cc(OC)c(OC)cc2c1CN(C)C`, for which the TGI in assay [1], in [2], in assay [3], in assay [4], in [6] and in assay [7] was above 100 µM throughout. This compound returned a TGI in [9] above 100 µM.

Regarding `CC1=C(C(=O)Nc2ccc(F)c(Cl)c2)C(c2cccc(Oc3ccccc3)c2)NC(=S)N1` (centres undefined), the GI50 in [1] is 13.7 µM; in [2], 11.5 µM; in assay [10], 10.7 µM; in assay [5], 27.8 µM; in assay [7] it was 6.79 µM; in assay [8], 40.4 µM. Moreover, the GI50 in assay [9] was 9.64 µM. The TGI was above 50 µM in assay [1]; 33.2 µM in [2]; 22.9 µM in assay [10]; above 50 µM in assay [5]; 15.6 µM in assay [7]; above 50 µM in assay [8]. In assay [9], this compound came in with a TGI of 20.2 µM.

In the case of `O=C1C=C(OCC=C(C(F)(F)F)C(F)(F)F)c2ccccc2C1=O`, the GI50 is 5.91 µM in [1]; 2.06 µM in assay [2]; 1.56 µM in [3]; 1.9 µM in assay [10]; 3.21 µM in assay [5]; 1.53 µM in [6]. Also, the GI50 in assay [7] was 1.69 µM; in assay [8], 0.777 µM; in assay [9], 1.84 µM. Besides, the TGI was found to be 27 µM in [1]; 5.7 µM in [2]; 3.11 µM in assay [3]; 4.2 µM in [10]; 14.7 µM in [5]; 2.91 µM in assay [6]. Further, the TGI amounted to 3.18 µM in [7], 3.7 µM in assay [8] and 3.83 µM in assay [9].

For `COc1cc([N+](=O)[O-])c(S(=O)(=O)O)cc1-n1nc(C(=O)Nc2ccccc2)n[n+]1-c1cc(S(=O)(=O)[O-])c([N+](=O)[O-])cc1OC`, the TGI in assay [1], in assay [2], in [3], in assay [4], in assay [5] and in [6] was above 100 µM throughout. For the same compound, the TGI in [9] was above 100 µM.

Take `CC1C=CC(C(N)C(=O)O)O1` (centres undefined): the TGI in assay [1], in assay [2], in assay [3], in assay [4], in [6] and in assay [7] was above 100 µM in each case. Further, the TGI in assay [9] was above 100 µM.

`CCOC(=N)CC(=O)Nc1ccccc1`: the TGI is above 46.4 µM in [1]; above 46.4 µM in assay [2]; above 46.4 µM in assay [3]; above 31.6 µM in assay [4]; above 46.4 µM in assay [6]; above 46.4 µM in assay [7]. The same compound yielded a TGI in assay [9] above 100 µM.

Consider `CC[C@H](C)[C@H](NC(=O)[C@H]1CCCCN1C)C(=O)N(C)[C@H](C[C@@H](OC(C)=O)c1cccc(C(=O)N[C@@H](Cc2ccccc2)C[C@H](C)C(=O)O)n1)C(C)C`, for which the TGI in assay [1], in assay [2], in assay [3], in assay [10], in assay [4] and in [5] was above 25 µM each time. Besides, the TGI in [6] and in assay [9] was above 25 µM in each case. The GI50 was 0.0064 µM and 0.0025 µM in [2]; 1.95 µM in assay [3]; 0.00316 µM and 0.0025 µM in assay [10]; 0.0584 µM and 0.00946 µM in assay [5]; 0.057 µM and 0.0168 µM in assay [6]; 0.00136 µM in assay [8]. The GI50 in assay [9] was 0.000744 µM and 0.0025 µM.

Regarding `COCCc1n(Cc2ccc3ccccc3c2)c2ccccc2[n+]1Cc1ccc2ccccc2c1`, the GI50 in assay [1] is 1.46 µM; in assay [3], 0.443 µM; in [10] it was 0.536 µM; in [5], 11.2 µM; in assay [6], 0.329 µM. The TGI is 3.03 µM in [1]; 1.72 µM in [3]; 1.94 µM in [10]; 53 µM in [5]; 1.34 µM in assay [6].

As to `CCN1C(=O)N(CC)C2C1NN=c1s/c(=C3\C(=O)N(C4CCCC4)c4ccccc43)c(=O)n12` (centres undefined), the GI50 is 1.55 µM in assay [1]; 0.479 µM in assay [2]; 1.26 µM in assay [3]; 2.2 µM in assay [10]; 1.47 µM in assay [4]; 0.603 µM in assay [7]. Besides, the GI50 in [9] is 1.57 µM. The TGI in [1] was above 100 µM; in assay [2], above 100 µM; in [3], 8.74 µM; in assay [10] it was 20.6 µM; in assay [4] it was 5.54 µM; in [7] it was 3.2 µM. The compound further gave a TGI in assay [9] of 15.6 µM.

As for `CN(C)Cc1ccc(NC(=O)c2cncc(C#Cc3cnc(N)c4ncccc34)c2)cc1F`, the GI50 in assay [1] is 2.57 µM; in assay [2], 1.73 µM; in [3], 1.61 µM; in [10] it was 1.6 µM; in assay [5] it was 2.2 µM; in [8], 10.3 µM. Moreover, in assay [9], the GI50 was 1.93 µM. The TGI in assay [1] worked out at 7.11 µM; in assay [2] it was 3.35 µM; in assay [3], 3.19 µM; in assay [10] it was 3.13 µM; in [5], 4.54 µM; in assay [8], 54.7 µM. The compound further had a TGI in assay [9] of 3.89 µM.
